Measured values published in PubChem BioAssay AID248 (DTP/NCI, 2004).
Several values for one entry are separate records, joined by “and”; a condition that tells them apart may be missing. Identical values can stand only once. Toxic doses and inconclusive results are not listed. Rule as the data show it: active = T/C of 150% or more; inactive = T/C below 125%.

Tested on: L1210 leukemia ip in BDF1 mice, survival T/C
Assay: NCI In Vivo Anticancer Drug Screen. Data for tumor model L1210 Leukemia (intraperitoneal) in B6D2F1 (BDF1) mice
Settings: endpoint: mean survival time, higher = longer survival
Method in brief: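 Tumor was transplanted into mice, which were then dosed with test compound or vehicle alone. Survival was recorded for each group, and the treated figure was expressed relative to the control figure.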

[1] = dose: 100.0 mg/kg/injection, schedule: Q01DX009 (ip), vehicle: saline
[2] = dose: 100.0 mg/kg/injection, schedule: Q04DX003 (ip), vehicle: saline
[3] = dose: 100.0 mg/kg/injection, schedule: Q01DX009 (ip), vehicle: saline with Tween-80
[4] = dose: 100.0 mg/kg/injection, schedule: Q04DX003 (ip), vehicle: saline with Tween-80
[5] = dose: 200.0 mg/kg/injection, schedule: Q01DX009 (ip), vehicle: saline with Tween-80
[6] = dose: 200.0 mg/kg/injection, schedule: Q04DX003 (ip), vehicle: saline with Tween-80
[7] = dose: 400.0 mg/kg/injection, schedule: Q04DX003 (ip), vehicle: saline with Tween-80
[8] = dose: 100.0 mg/kg/injection, schedule: Q04DX003 (ip), vehicle: saline sonified
[9] = dose: 200.0 mg/kg/injection, schedule: Q04DX003 (ip), vehicle: saline sonified
[10] = dose: 100.0 mg/kg/injection, schedule: Q01DX009 (ip), vehicle: Klucel (hydroxypropylcellulose) (HPC)
[11] = dose: 100.0 mg/kg/injection, schedule: Q04DX003 (ip), vehicle: Klucel (hydroxypropylcellulose) (HPC)
[12] = dose: 200.0 mg/kg/injection, schedule: Q01DX009 (ip), vehicle: Klucel (hydroxypropylcellulose) (HPC)
[13] = dose: 200.0 mg/kg/injection, schedule: Q04DX003 (ip), vehicle: Klucel (hydroxypropylcellulose) (HPC)
[14] = dose: 400.0 mg/kg/injection, schedule: Q01DX009 (ip), vehicle: Klucel (hydroxypropylcellulose) (HPC)
[15] = dose: 400.0 mg/kg/injection, schedule: Q04DX003 (ip), vehicle: Klucel (hydroxypropylcellulose) (HPC)
[16] = dose: 100.0 mg/kg/injection, schedule: Q04DX002 (ip), vehicle: Klucel (hydroxypropylcellulose) (HPC)
[17] = dose: 200.0 mg/kg/injection, schedule: Q04DX002 (ip), vehicle: Klucel (hydroxypropylcellulose) (HPC)
[18] = dose: 400.0 mg/kg/injection, schedule: Q04DX002 (ip), vehicle: Klucel (hydroxypropylcellulose) (HPC)
[19] = dose: 100.0 mg/kg/injection, schedule: Q01DX001 (ip), vehicle: carboxymethylcellulose (CMC)
[20] = dose: 200.0 mg/kg/injection, schedule: Q01DX001 (ip), vehicle: carboxymethylcellulose (CMC)
[21] = dose: 400.0 mg/kg/injection, schedule: Q01DX001 (ip), vehicle: carboxymethylcellulose (CMC)
[22] = dose: 100.0 mg/kg/injection, schedule: Q04DX002 (ip), vehicle: saline with Tween-80
[23] = dose: 200.0 mg/kg/injection, schedule: Q04DX002 (ip), vehicle: saline with Tween-80
[24] = dose: 400.0 mg/kg/injection, schedule: Q04DX002 (ip), vehicle: saline with Tween-80
[25] = dose: 50.0 mg/kg/injection, schedule: Q01DX009 (ip), vehicle: saline with Tween-80

Measured: T/C

COC(OC)OC
inactive: [1] 104 % of control | [2] 100 % of control | dose: 200.0 mg/kg/injection, schedule: Q01DX009 (ip), vehicle: saline 101 % of control | dose: 200.0 mg/kg/injection, schedule: Q04DX003 (ip), vehicle: saline 105 % of control | dose: 400.0 mg/kg/injection, schedule: Q01DX009 (ip), vehicle: saline 100 % of control | dose: 400.0 mg/kg/injection, schedule: Q04DX003 (ip), vehicle: saline 105 % of control

Cc1ccc(OC(=O)C(C(=O)Oc2ccc(C)cc2)C(=O)Oc2ccc(C)cc2)cc1
inactive: dose: 25.0 mg/kg/injection, schedule: Q01DX001 (ip), vehicle: saline with Tween-80 104 % of control | dose: 50.0 mg/kg/injection, schedule: Q01DX001 (ip), vehicle: saline with Tween-80 101 % of control | dose: 100.0 mg/kg/injection, schedule: Q01DX001 (ip), vehicle: saline with Tween-80 95 % of control and 98 % of control

O=C(O)Cc1c[nH]c(=O)[nH]c1=O
inactive: [3] 97 % of control | [4] 102 % of control | [5] 103 % of control | [6] 103 % of control | dose: 400.0 mg/kg/injection, schedule: Q01DX009 (ip), vehicle: saline with Tween-80 101 % of control | [7] 92 % of control

C=CCOCC(O)CN(C)C1CCCCC1 (stereo unspecified)
inactive: dose: 25.0 mg/kg/injection, schedule: Q01DX009 (ip), vehicle: saline 97 % of control | dose: 25.0 mg/kg/injection, schedule: Q04DX003 (ip), vehicle: saline 106 % of control | dose: 50.0 mg/kg/injection, schedule: Q01DX009 (ip), vehicle: saline 98 % of control | dose: 50.0 mg/kg/injection, schedule: Q04DX003 (ip), vehicle: saline 103 % of control | [1] 95 % of control | [2] 100 % of control and 104 % of control

CC(=O)OCCOc1ccc([N+](=O)[O-])cc1
inactive: [4] 102 % of control | [6] 102 % of control | [7] 103 % of control

CSc1nc2nc[nH]c(=O)c2cc1C#N
inactive: dose: 100.0 mg/kg/injection, schedule: Q01DX001 (ip), vehicle: Klucel (hydroxypropylcellulose) (HPC) 91 % of control | dose: 200.0 mg/kg/injection, schedule: Q01DX001 (ip), vehicle: Klucel (hydroxypropylcellulose) (HPC) 96 % of control | dose: 400.0 mg/kg/injection, schedule: Q01DX001 (ip), vehicle: Klucel (hydroxypropylcellulose) (HPC) 106 % of control

O=C(O)CC[n+]1c(/C=C/c2cc(Br)c(O)c(Br)c2)sc2ccccc21
inactive: [8] 102 % of control | [9] 99 % of control

CC(=O)Nc1ccc(C=Nc2ccccc2)cc1
inactive: [10] 107 % of control | [11] 96 % of control | [12] 102 % of control | [13] 97 % of control | [14] 111 % of control | [15] 97 % of control

Cc1c(C)c(C)c(CN2CC(=O)c3ccccc3C2=O)c(C)c1C
inactive: [16] 89 % of control | [17] 104 % of control | [18] 89 % of control

CC(C)c1cc[n+](/C(C(=S)Nc2ccccc2Cl)=C(/[O-])c2ccc([N+](=O)[O-])cc2)cc1
inactive: [10] 94 % of control | [12] 97 % of control | [14] 96 % of control

O=C(NCc1ccccc1)C(Cc1ccccc1)Cc1ccccc1
inactive: [19] 93 % of control | [20] 95 % of control | [21] 98 % of control

CCCCCN(CCCCC)CCC(=O)c1ccc2cc(Br)c3ccccc3c2c1
inactive: dose: 13.3 mg/kg/injection, schedule: Q01DX Z (ip), vehicle: methylcellulose (MC) 91 % of control | dose: 20.0 mg/kg/injection, schedule: Q01DX Z (ip), vehicle: methylcellulose (MC) 92 % of control | dose: 30.0 mg/kg/injection, schedule: Q01DX Z (ip), vehicle: methylcellulose (MC) 92 % of control

[N-]=[N+]=C1N=CN=C1c1ncnn1Cc1ccccc1
inactive: dose: 5.0 mg/kg/injection, schedule: Q01DX001 (ip), vehicle: other 105 % of control | dose: 10.0 mg/kg/injection, schedule: Q01DX001 (ip), vehicle: other 97 % of control | dose: 20.0 mg/kg/injection, schedule: Q01DX001 (ip), vehicle: other 94 % of control | dose: 40.0 mg/kg/injection, schedule: Q01DX001 (ip), vehicle: other 94 % of control | dose: 80.0 mg/kg/injection, schedule: Q01DX001 (ip), vehicle: other 101 % of control

CC(C)(C)c1cc(NS(=O)(=O)c2ccccc2)c(N=[N+]=[N-])c(Cl)c1NS(=O)(=O)c1ccccc1
inactive: [22] 102 % of control | [23] 91 % of control | [24] 102 % of control

CCOC(CNC(=S)Nc1ccccc1)OCC
inactive: [19] 89 % of control | [20] 95 % of control | [21] 95 % of control

c1ccc(CCNc2ccc(NCCc3ccccc3)cc2)cc1
inactive: dose: 75.0 mg/kg/injection, schedule: Q01DX001 (ip), vehicle: Klucel (hydroxypropylcellulose) (HPC) 92 % of control | dose: 75.0 mg/kg/injection, schedule: Q01DX009 (ip), vehicle: Klucel (hydroxypropylcellulose) (HPC) 97 % of control | dose: 150.0 mg/kg/injection, schedule: Q01DX001 (ip), vehicle: Klucel (hydroxypropylcellulose) (HPC) 106 % of control | dose: 150.0 mg/kg/injection, schedule: Q01DX009 (ip), vehicle: Klucel (hydroxypropylcellulose) (HPC) 100 % of control | dose: 300.0 mg/kg/injection, schedule: Q01DX001 (ip), vehicle: Klucel (hydroxypropylcellulose) (HPC) 97 % of control | dose: 300.0 mg/kg/injection, schedule: Q01DX009 (ip), vehicle: Klucel (hydroxypropylcellulose) (HPC) 106 % of control

Nc1ccc2c(c1)Cc1cc(N)c(Br)cc1-2
inactive: [19] 105 % of control | [20] 109 % of control | [21] 94 % of control

CC(C)(C)NC1=NCCO1
inactive: dose: 25.0 mg/kg/injection, schedule: Q01DX009 (ip), vehicle: saline with Tween-80 100 % of control | [25] 102 % of control | [3] 96 % of control | [4] 100 % of control

CCC(C)C(N)C(=O)OCc1ccccc1 (stereo unspecified)
inactive: dose: 50.0 mg/kg/injection, schedule: Q01DX009 (ip), vehicle: Klucel (hydroxypropylcellulose) (HPC) 88 % of control | [10] 90 % of control | [16] 95 % of control | [12] 92 % of control | [17] 92 % of control | [18] 89 % of control

CC(C)(Oc1ccc(Cl)cc1)C(=O)NCCCCCC(=O)O
inactive: [25] 98 % of control | [3] 98 % of control | [5] 95 % of control

O=S(CCO)c1ccc(Cl)cc1 (stereo unspecified)
inactive: [22] 100 % of control and 109 % of control | [4] 118 % of control | [23] 102 % of control and 88 % of control | [6] 106 % of control | [24] 98 % of control and 103 % of control | [7] 100 % of control

COc1cc2c(cc1OC)C1CC(=O)CCN1CC2 (stereo unspecified)
inactive: [12] 101 % of control

CCCCCCCCCCCCCC(=O)OCC(OC(=O)CCCCCCCCCCCCC)C(OC(=O)CCCCCCCCCCCCC)C(OC(=O)CCCCCCCCCCCCC)C(C=O)OC(=O)CCCCCCCCCCCCC (stereo unspecified)
inactive: dose: 100.0 mg/kg/injection, schedule: Q01DX001 (ip), vehicle: other 90 % of control | dose: 200.0 mg/kg/injection, schedule: Q01DX001 (ip), vehicle: other 97 % of control | dose: 400.0 mg/kg/injection, schedule: Q01DX001 (ip), vehicle: other 92 % of control

NC1(C(=O)O)CCc2ccccc2C1 (stereo unspecified)
inactive: [11] 91 % of control | [15] 99 % of control

O=C(COc1ccc(Cl)cc1)C1CSc2ccc(Br)cc21 (stereo unspecified)
inactive: [8] 89 % of control | [9] 101 % of control | dose: 400.0 mg/kg/injection, schedule: Q04DX003 (ip), vehicle: saline sonified 92 % of control

O=C(COc1cc(Cl)cc(Cl)c1)NCc1ccc(Cl)cc1
inactive: [10] 91 % of control | [11] 95 % of control | [12] 88 % of control | [13] 95 % of control | [14] 95 % of control | [15] 88 % of control
